What was measured:
Type in all cases: cell-based
C. gattii (R265) = test: MIC dose-response assay in YPD; settings: Cryptococcus gattii
Description: (§1) Fig 4 4456dh inhibits the growth of Candida and Cryptococcus species. Two-fold dose response assays were performed against (A) C. albicans at 42°C and C. auris at 39°C, (B) C. glabrata at 42°C, and (C) C. neoformans, C. deneoformans, and C. gattii at 37°C. 4456dh was administered at the concentrations indicated. Cultures were grown in YPD at the listed temperatures for 48 hours for Candida species and 72 hours for Cryptococcus species. Experimental temperatures reflect the temperatures at which the fungi experience heat stress. Left: relative growth of treated samples was calculated by averaging technical triplicates and normalizing the OD600 of each treated well to the average OD600 of the untreated WT controls, after the absorbance due to the compound was subtracted. The MIC80 values, calculated based on the OD600 values, are indicated in the white text on each heat map. Right: representative spot assays show the ability of cells to grow after exposure to 4456dh and indicate fungicidal activity of 4456dh. TEXT PRINTED IN THE PICTURE: (A) 4456dh: C. albicans 42 °C: 13 mM; C. auris 39 °C: 7 mM | (B) 4456dh: C. glabrata 42 °C: 7.8 μM | (C) 4456dh: C. neoformans 37 °C: 7 mM; C. deneoformans 37 °C: 3 mM; C. gattii 37 °C: 7 mM DOUBTS OF THE COPYIST ABOUT THIS PICTURE: 4456dh, all panels: the picture prints no measure name with the white values on the heat maps, so each value is given only with its organism and temperature
(§2) We next tested the activity of 4456dh on Cryptococcus species at 37°C.
(§3) 123 hours. […]
(§4) 126 medium. Growth was plotted as a heat map using Excel.
(§5) 127 Wild-t y pe C. neoformans strains H99, wild-type C. deneoformans JEC21 and wild- t y pe C. gattii
(§6) 128 R265 were cultured overnight in YPD (yeast-peptone- dextrose) medium at 30 °C. Growth of the
(§7) 129 overnight cultures was quantified by measuring the OD600 and corrected for the background
(§8) 130 absorbance of the medium. Antifungal potency for 4456dh was assessed by minimum inhibitory
(§9) 131 concentration (MIC) dose-response assays performed under standard Clinical and Lab Standards
(§10) 132 Institute (CLSI) conditions. A volume of 125 µL from each cell suspension was dispensed into the
(§11) 133 wells of 96-well flat-bottom microtiter plates (Corning). An additional 25 µL of 4456dh from a series
(§12) 134 of dilutions from the 157 mM stock solution prepared in water was added to each well. Following […]
(§13) 137 replicates. Growth, as determined by a reading of absorbance at 600 nm, was normalized to
(§14) 138 untreated controls and was corrected for the absorbance of 4456dh in the YPD medium. […]
(§15) 139 minimum inhibitory concentration causing 80% growth reduction, or MIC80, was determined based […]
(§16) 157 Optical density (OD600) was determined with an Infinite PRO plate reader ( Tecan). […]

C. neoformans (H99) = test: MIC dose-response assay in YPD; settings: Cryptococcus neoformans
Description: as §1, §2, §3, §4, §5, §6, §7, §8, §9, §10, §11, §12, §13, §14, §15, §16

[1] = tested on: trehalose content of C. neoformans; test: Trehalose measurement (colorimetric glucose assay after trehalase); settings: 37°C, sublethal dose (0.5 mM 4456dh), P < 0.05; dose-dependent
Description: Fig 5 4456dh treatment results in reduced trehalose accumulation and a decrease in Tps1-dependent virulence factors. Trehalose accumulation measurements for C. albicans (A) and C. neoformans (B) cultured at indicated temperatures in the absence or presence of 0.5 mM 4456dh. Trehalose was measured using a colorimetric glucose assay after treatment of cultures with trehalase. Statistical comparisons were done with a one-way analysis of variance (ANOVA) analysis followed by a post hoc Tukey’s test. Error bars represent SE. (C) C. albicans WT strain SC5314 cells were treated with 0.5 mM, 1.0 mM, and 5 mM 4456dh. […] Cells were harvested, stained in India Ink, and analyzed using differential interference contrast imaging. […]
124 technical replicates. Growth, as determined by a reading of absorbance at 600 nm, was
125 normalized to untreated controls and was corrected for the absorbance of 4456dh in the YPD […]
as §7
130 absorbance of the medium. Antifungal potency for 4456dh was assessed by minimum inhibitory […]
as §13, §14, §15

[2] = Supplemental Table 5, This publication

## Cn1cc(-c2csc(NC(=O)Cc3ccccn3)n2)cn1 [Compound 4456dh]
C. gattii (R265); 37°C, YPD, 72 hours
  MIC80: 7 mM
C. gattii (R265); [2]
  MIC80: 2780 µg/mL
C. neoformans (H99); 37°C, YPD, 72 hours
  MIC80: 7 mM
C. neoformans (H99); [2]
  MIC80: 2780 µg/mL
[1]
  change in trehalose: significant decrease in trehalose

Source: article PMC12505902, “Inhibitors of trehalose-6-phosphate synthase activity in fungal pathogens compromise thermal tolerance pathways” (mBio, 2025)
